These results are taken from patent US20240417371A1, “CANNABIDIOL DERIVATIVE, AND PREPARATION METHOD THEREFOR AND USE THEREOF” (priority 2021, published 2024).

One series is described as follows: Solubility in water. The format is physicochemical. The source says:
^1[…]=0.8 Hz, 1[…]=7.6 Hz, 2[…]=6.8 Hz, 3H).

The conditions of series [1]: high-purity CBD, background statement; cited from earlier work.

One may read the solubility as how much of the substance goes into solution per volume. Read a high solubility as much dissolved substance.

In “Solubility in water”, `C=C(C)[C@@H]1CCC(C)=C[C@H]1c1c(OCC(=O)N[C@@H](CCSC)C(=O)[O-])cc(CCCCC)cc1OCC(=O)N[C@@H](CCSC)C(=O)[O-].[Na+].[Na+]` [Compound E2] returned a solubility of 200 mg/mL.

As for `C=C(C)[C@@H]1CCC(C)=C[C@H]1c1c(O)cc(CCCCC)cc1O` [CBD, 2-[(1R,6R)-3-methyl-6-(1-methylvinyl)-2-cyclohexen-1-yl]-5-pentyl-1,3-benzenediol], the “solubility in water” value in series [1] is listed as “almost insoluble in water”.
